{"source": "patent US8828453B2", "about": "“Herbal-based compositions for alleviating symptoms associated with autism” (priority 2010, dated 2014)", "origin": "cited, not measured here", "system": "newborn murine brain"}
{"smiles": "CCCCC/C=C\\C/C=C\\C/C=C\\C/C=C\\CCCC(=O)NCCO", "note": "[anandamide]", "values": [{"measurement": "protection against excitotoxic damage", "value": "protected the newborn murine brain against excitotoxic damage"}]}
